Data: US20180369203A1, “METHODS OF TREATING CANCER BY ADMINISTERING A MEK INHIBITOR IN COMBINATION WITH A PROTEASOME INHIBITOR” (The Jackson Laboratory, priority 2015, published 2018)

Tests used:
A2058 cells [1] = assay: Ubiquitination proteomics (UbiScan, LC-MS/MS) of A2058 cells; assay type: cell-based, human; details: 20 nM AZD6244, 8 hrs vs DMSO
Description: (A) GFP and GFP-GR plasmids were co-transfected into HEK293T cells followed by treatments with 20 nM AZD6244, 20 μM U0126, or 200 nM 17-DMAG for 4 hr. (B) GFP-GR plasmids were co-transfected into HEK293T cells with HA-Ub-K48 plasmids, which encode a mutant ubiquitin that can be conjugated to protein substrates only via lysine 48. Following treatments with 20 nM AZD6244 or 200 nM 17-DMAG for 4 hr, GFP-GR proteins were precipitated and ubiquitination was detected using anti-HA antibodies. (C) Denatured firefly luciferases were incubated with lysates of A2058 cells treated with DMSO or 20 nM AZD6244 (mean±SD, n=4, ANOVA). (D) A2058 cells were treated with 20 nM AZD6244, and ubiquitinated proteins were detected in both detergent-soluble and -insoluble fractions using Lys48-specific ubiquitin antibodies. […] (G) Experimental procedures of MS-based quantitation of ubiquitinated peptides, two technical replicates per treatment. […] (Q) Endogenous RPL15 and RPL3 proteins were detected in A2058 cells treated with 20 nM AZD6244 alone or co-treated with 500 nM MG132. (R) Endogenous RPL15 and RPL3 proteins were detected in A2058 cells stably expressing LacZ or HSF1^S326D with AZD6244 treatment. […]
A2058 cells were grown in 150 mm culture dishes and treated with DMSO or 20 nM AZD6244 for 8 hrs. […] Two technical replicates were analyzed for each treatment.

A2058 cells [2] = assay: Experimental melanoma metastasis, i.v. luciferase-expressing A2058 cells in NOD/SCID mice; assay type: in vivo; details: n=10 per group
Description: FIGS. 6A-N show combined MEK and proteasome inhibition exerts potent tumor-suppressive effects. (A) After treatments with 20 nM AZD6244, 100 nM Bortezomib, or both for 24 hr, viable cells were quantitated by CellTiter® Blue (mean±SD, n=6, ANOVA). (B and C) 1×10^6 A2058 cells were s.c. injected into NOD/SCID mice. After 7 days, mice were treated with DMSO, 5 mg/Kg AZD6244, 0.5 mg/Kg Bortezomib, or the combination via i.p. injection three times a week. Tumor volumes were measured using a caliper weekly (mean±SEM, ANOVA). Tumor growth curves were fitted to exponential growth models to derive tumor-doubling time (DT). Kaplan-Meier survival curve was plotted for each group (Log-rank test). (D) Proteins were detected by immunoblotting, 3 tumors per group. (E) Tumor lysates were used to quantitate AOs, 5 tumors per group (mean±SD, n=3, ANOVA). (F) Tumor lysates were used to seed Aβ1-42 peptides, 5 tumors per group (mean±SD, n=3, ANOVA). (G-H) Tumor sections were stained with CR, 5 tumors per group. […] Total CR fluorescence in each field was quantitated using ImageJ and normalized against total nuclei (median, n=50, ANOVA). […] Body weights were monitored weekly (mean±SD, n=10, ANOVA). […]
A2058 cells were s.c. injected into the left flanks of 9-week-old female NOD.CB17-Prkdc/J (NOD/SCID) mice (The Jackson Laboratory). […] Tumor volumes were calculated following the formula 4/3πR^3. […]

A2058 cells [3] = assay: In vivo CR administration in A2058 xenograft with or without combined treatment; set-up: species or system NOD/SCID mice
Description: FIGS. 7A-H show amyloidogenesis suppresses tumor growth. (A) Sections of melanomas receiving combined treatment were stained with cleaved caspase 3 antibodies followed by CR staining Arrowheads and arrows indicate condensed and fragmented nuclei, respectively. Scale bar: 50 μm. (B) 1×10^6 A2058 cells were s.c. injected into NOD/SCID mice. After 7 days, mice were treated with 1 mg/30 g CR via i.p. injection one day prior to combined treatment. Tumor volumes were measured weekly (mean±SD, ANOVA). […] Lysis buffer containing CR served as a positive control. (D) Kaplan-Meier survival curves were compared (Log-rank test). (E and F) Both detergent-soluble and -insoluble fractions of tumor lysates were used to quantitate amyloids, 3 tumors per group (mean±SD, n=3, Student's t-test). (G) Proteins were detected by immunoblotting, 3 tumors per group. (H) Schematic depiction of the interplay among MEK, ERK, and HSF1, and its role in regulating proteome stability. Balanced proteostasis suppresses toxic protein aggregation and amyloidogenesis, thereby facilitating tumorigenesis. See also FIG. 14.
This figure is related to FIG. 7. (A) CR treatment stimulates in vivo melanoma growth and renders melanomas partially resistant to combined MEK and proteasome inhibition. Tumors were harvested at sacrifice and weighed (mean±SD, n=10, ANOVA). (B) CR treatment exacerbates body weight loss in tumor-bearing mice. Body weights were recorded before xenografting and at sacrifice. To derive net body weights of melanoma-bearing mice, tumor weights were subtracted from total body weights. Results are presented as body weight changes before and after xenografting (paired Student's t-test).
A2058 cells were s.c. injected into the left flanks of 9-week-old female NOD.CB17-Prkdc/J (NOD/SCID) mice (The Jackson Laboratory). For CR treatment, mice were i.p. injected with PBS or CR one day prior to combined AZD6244 and Bortezomib treatments. Tumor volumes were calculated following the formula 4/3πR^3. For experimental metastasis, engineered A2058 cells were transplanted into 10-week-old female NOD/SCID mice via tail vein injections. All mouse experiments were performed under a protocol approved by The Jackson Laboratory Animal Care and Use Committee.

ERK = assay: Immunoblotting of ERK and MSK1 phosphorylation in HEK293T cells; assay type: cell-based; details: inhibitors overnight
Description: Whole-cell protein extracts were prepared in cold cell-lysis buffer (100 mM NaCl, 30 mM Tris-HCl pH 7.6, 1% Triton X-100, 30 mM NaF, 1 mM EDTA, 1 mM sodium orthovanadate, and Halt™ protease inhibitor cocktail from Thermo Scientific). Proteins were separated on SDS-PAGE gels and transferred to nitrocellulose membranes. Primary antibodies were applied in wash buffer overnight at 4° C. Peroxidase-conjugated secondary antibodies were applied at room temperature for 1 hr, and signals were visualized by SuperSignal West chemiluminescent substrate (Thermo Fisher Scientific), followed by exposure to films.

HSF1 = assay: Dual HSF1 reporter assay (HSE-SEAP / CMV-GLuc) in HEK293T cells; assay type: cell-based; details: 20 μM U0126, 20 nM AZD6244, 1 μM FR180204 or 100 nM Sch772984
Description: (A) NIH3T3 cells were treated with HS at 43° C. for 30 min, 10 μM tubastatin A for 5 hr, 40 μM VER155008 for 1 hr, 500 nM MG132 for 1 hr, 200 nM 17-DMAG for 1 hr, and 2.5 mM azetidine for 15 min (B) The dual ELK1 reporter system, comprising a serum response element (SRE)-driven secreted embryonic alkaline phosphatase (SEAP) plasmid and a CMV-driven Gaussia luciferase (GLuc) plasmid, was transfected into HEK293T cells. After 24 hr, cells were treatments as in (A) and recovered overnight before measuring reporter activities (mean±SD, n=6, ANOVA). (C and D) NIH3T3 cells were treated with 20 μM U0126 or 20 nM AZD6244 for 3 hr followed by HS and 4-hr recovery. mRNA levels were quantitated by qRT-PCR (mean±SD, n=3, Student's t-test). (E) Immediately after HS, nuclear proteins of NIH3T3 cells treated as in (C) were extracted to measure HSF1-DNA binding by an ELISA-based assay (mean±SD, n=3, ANOVA). (F) HEK293T cells were transfected with dual HSF1 reporter plasmids, a heat-shock element (HSE)-driven SEAP plasmid and a CMV-GLuc plasmid. […] (G) HEK293T cells were treated with different inhibitors overnight. […] After 24 hr, cells were heat shocked at 43° C. for 30 min followed by overnight recovery (mean±SD, n=3, ANOVA). […]
FIGS. 8A-H illustrate that MEK and ERK inversely regulate the PSR. […] Cell viability was measured by a Guava EasyCyte™ flow cytometer using Guava ViaCount™ reagents (mean±SD, n=5, Student's t test). […] Levels of ERK1 and ERK2 mRNAs were quantitated in HEK293T cells transfected with ERK1-targeting siRNAs by qRT-PCR (mean±SD, n=3, ANOVA). […] Levels of ERK2 and ERK1 mRNAs were quantitated in HEK293T cells transfected with ERK2-targeting siRNAs by qRT-PCR (mean±SD, n=3, ANOVA).
Plasmids were transfected with TurboFect transfection reagent (Thermo Scientific). SEAP and luciferase activities in culture supernatants were quantitated using a Ziva® Ultra SEAP Plus Detection Kit (Jaden BioScience) and a Gaussia Luciferase Glow Assay Kit (Thermo Scientific), respectively. Luminescence signals were measured by a VICTORS Multilabel plate reader (PerkinElmer).

[4] = system: ERK complexes precipitated from HEK293T cells; assay: In vitro kinase assay with immunoprecipitated ERK complexes; assay type: biochemical; details: 1000 ng MBP
Description: Co-expressed GFP proteins served as internal controls. […] See also FIG. 10.
Samples were boiled for 5 min to stop reactions.

HSF1 Ser326 = HSF1 Ser326 phosphorylation by immunoblotting in HEK293T cells; assay type: cell-based; details: overnight, 20 μM U0126, 20 nM AZD6244, 1 μM FR180204 or 100 nM Sch772984
Description: This figure is related to FIG. 3. (A) Validation of phospho-HSF1 Ser326 antibodies. […] (B) MEK blockade impairs HSF1 Ser326 phosphorylation. […] (D-E) S326A mutation impairs HSF1 nuclear translocation. […] (F) Acute MEK depletion diminishes HSF1 proteins. […] HSF1 proteins were detected by immunoblotting. (G) ERK-mediated HSF1 Ser307 phosphorylation depends on MEK. […] Levels of phosphor-HSF1 Ser307 were measured by immunoblotting. (H) HSF1 Ser326 phosphorylation inhibits Ser307 phosphorylation.

Cn1cnc2c(F)c(Nc3ccc(Br)cc3Cl)c(C(=O)NOCCO)cc21 [AZD6244, selumetinib]
increase in ubiquitination of RPL3 (A2058 cells [1]): 13.7 fold
increase in ubiquitination of TOR1AIP2 (A2058 cells [1]): 61.0 fold
mice with luminescence detected by in vivo imaging (A2058 cells [2]): 40%

Nc1c(/N=N/c2ccc(-c3ccc(/N=N/c4cc(S(=O)(=O)O)c5ccccc5c4N)cc3)cc2)cc(S(=O)(=O)O)c2ccccc12 [CR, Congo red]
melanoma growth (A2058 cells [3]; 1 mg/30 g CR i.p.): accelerated
tumor suppression imposed by combined MEK and proteasome inhibition (A2058 cells [3]; 1 mg/30 g CR i.p. one day prior to combined treatment): potently antagonized
amyloids in tumor tissues (A2058 cells [3]; CR treatment): reduced
animal survival (A2058 cells [3]; CR treatment): shortened
body conditions (A2058 cells [3]; CR treatment): deteriorated
tumor masses (A2058 cells [3]; CR treatment): enlarged
ubiquitination in tumors (A2058 cells [3]; CR treatment): did not diminish
caspase 3 cleavage in tumors (A2058 cells [3]; CR-treated tumors): reduced
penetration of CR into tumor tissues (A2058 cells [3]; absorbance of tumor lysates): intense light absorption of tumor lysates at 498 nm

Nc1[nH]nc2nnc(-c3c(-c4ccccc4)nn4ccccc34)cc12 [FR180204]
ERK phosphorylation (ERK): promoted
transcriptional activation of HSF1 (HSF1): activated
phosphorylation of myelin basic protein (MBP) by precipitated ERK complexes [4]: blocked
HSF1 Ser326 phosphorylation (HSF1 Ser326): enhances

O=C(Nc1ccc2[nH]nc(-c3ccncc3)c2c1)[C@@H]1CCN(CC(=O)N2CCN(c3ccc(-c4ncccn4)cc3)CC2)C1 [Sch772984]
ERK phosphorylation (ERK): suppressed
transcriptional activation of HSF1 (HSF1): activated
HSF1 Ser326 phosphorylation (HSF1 Ser326): enhances
